The record followed here is patent US7550604B2, “Pyrroloterpenes and use of the same as antimicrobial and anticancer agents” (Nereus Pharmaceuticals, Inc., priority 2004, dated 2009).

Common to all, as to assay type: cell-based
The test system of one experiment is B16-F10 cells. Kind of experiment: Growth inhibition of murine melanoma B16-F10 cells (resazurin). The protocol:
B16-F10 (ATCC; CRL-6475) a murine melanoma cell line was maintained in complete Dulbecco's Modification of Eagle's Medium (DMEM) (DMEM supplemented with 10% (v/v) Fetal bovine serum, 2 mM glutamine, 10 mM HEPES and Penicillin/Streptomycin at 100 IU/ml and 100 μg/ml respectively). The cells were cultured in an incubator at 37° C. in 5% CO2 and 95% humidified air. For cell growth inhibition assays, B16-F10 cells were seeded at 1.25×10^3 cells/well in 90 μl complete media into Corning 3904 black-walled, clear-bottom tissue culture plates and the plates were incubated overnight to allow cells to establish and enter log phase growth. Two independent assays were performed using 200 mM or 400 mM stock solutions prepared in 100% DMSO. 10× concentrated serial dilutions of the compound of Formula (V) were prepared in appropriate culture medium. Ten μl volumes of the serial dilutions were added to the test wells in triplicate resulting in final concentrations ranging from 500 μM to 158 nM or 1 mM to 7.81 μM. The plates were returned to the incubator for 48 hours. The final concentration of DMSO was 0.25% in all samples. […] Since living cells metabolize Resazurin, the fluorescence of the reduction product of Resazurin was measured using a Fusion microplate fluorometer (Packard Bioscience) with λex =535 nm and λem=590 nm filters. […]

In the next experiment the test system is Bacillus cereus 14579. As to the kind of experiment: Antimicrobial MIC assay (NCCLS M7-A5). On the procedure:
(§1) Minimum inhibitory concentrations (MICs) were determined according to the National Committee for Clinical Laboratory Standards (NCCLS) susceptibility test guideline M7-A5 (Ferraro, M. 2001 Methods for Dilution Antimicrobial Susceptibility Tests for Bacteria that Grow Aerobically; Approved Standard (NCCLS). National Committee for Clinical Laboratory Standards (NCCLS), Villanova, which is incorporated herein by reference in its entirety).

Experiment [1] has as its system Staphylococcus aureus - MSSA. As to the kind of experiment: Antimicrobial MIC assay (NCCLS M7-A5). The protocol: as §1
The test system of the next experiment is Escherichia coli imp. As to the kind of experiment: Antimicrobial MIC assay (NCCLS M7-A5). On the procedure: as §1
In the next experiment the test system is Candida albicans. As to the kind of experiment: Antimicrobial MIC assay (NCCLS M7-A5). The protocol:
as §1

The next experiment has as its system HT-29 cells. Kind of experiment: Growth inhibition of human colorectal adenocarcinoma HT-29 cells (resazurin). The protocol: HT-29 (ATCC; HTB-38) a human colorectal adenocarcinoma cell line was maintained in complete McCoy's 5A medium (McCoy's 5A medium supplemented with 10% (v/v) Fetal bovine serum, 2 mM glutamine, 10 mM HEPES, 1% (v/v) non-essential amino acids (NEAA), 1 mM sodium pyruvate and Penicillin/Streptomycin at 100 IU/ml and 100 μg/ml respectively). The cells were cultured in an incubator at 37° C. in 5% CO2 and 95% humidified air. For cell growth inhibition assays, HT-29 cells were seeded at 5×10^3 cells/well in 90 μl complete media into Corning 3904 black-walled, clear-bottom tissue culture plates and the plates were incubated overnight to allow cells to establish and enter log phase growth. Two independent assays were performed using 200 mM or 400 mM stock solutions prepared in 100% DMSO. 10× concentrated serial dilutions of the compound of Formula (V) were prepared in appropriate culture medium. Ten μl volumes of the serial dilutions were added to the test wells in triplicate resulting in final concentrations ranging from 500 μM to 158 nM or 1 mM to 7.81 μM. The plates were returned to the incubator for 48 hours. The final concentration of DMSO was 0.25% in all samples. […] Since living cells metabolize Resazurin, the fluorescence of the reduction product of Resazurin was measured using a Fusion microplate fluorometer (Packard Bioscience) with λex =535 nm and λem=[…] filters. […]

As for `CC(=C/C(=O)c1ccc[nH]1)/C=C/C(O)C1(C)CCC(C(C)(C)O)O1` (stereo not shown) [Formula (V)], in the experiment with B16-F10 cells (B16-F10), the “inhibition of growth of B16-F10 tumor cells (in words)” value was “able to inhibit the growth”. Further, the EC50 in the experiment with B16-F10 cells (Mus musculus, B16-F10, 48 hours drug exposure, resazurin fluorescence, read-out: EC50 against B16-F10 cells) came out at 260 µM; with HT-29 cells (Homo sapiens, HT-29, 48 hours drug exposure, resazurin fluorescence, read-out: EC50 against HT-29 cells) it was 286 µM. For the same molecule, the MIC is 72 µg/mL in the experiment with Bacillus cereus 14579 (Bacillus cereus 14579), 64 µg/mL in experiment [1] (Staphylococcus aureus - MSSA), 128 µg/mL in the experiment on Escherichia coli imp and > 128 µg/mL in the experiment with Candida albicans. Besides, the “anti-bacterial activity versus gram positive microorganisms (in words)” value (in the experiment on Bacillus cereus 14579 (gram positive: Bacillus cereus 14579); in experiment [1] (gram positive: Staphylococcus aureus - MSSA)) was “possess anti-bacterial activity” in each case. For the same molecule, the “inhibition of growth of HT-29 tumor cells (in words)” value in the experiment on HT-29 cells (HT-29) is recorded as “able to inhibit the growth”.
